Measurements as given in PubChem BioAssay AID1259408 (Genetic Toxicology Data Bank (GENE-TOX), 2018).
Activity calls are given as the source filed them. No rule for the calls is given here.

System: GENE-TOX genotoxicity assays, various organisms and cells
Assay: GENE-TOX mutagenicity studies
Conditions: for call: Assay Type: In vivo carcinogenicity studies
[1] = Species/Cell Type: Drosophila melanogaster, Assay Type: Sex-linked recessive lethal gene mutation, Assay Code: SRLT, Evaluation Type: Evaluation A (Pre-1980)
[2] = Species/Cell Type: Human, Sex: Male, Assay Type: Sperm morphology, Assay Code: SPH+, Evaluation Type: Evaluation A (Pre-1980)
[3] = Species/Cell Type: Salmonella typhimurium (one or more of the five standard strains: TA98, TA100, TA1535, TA1537, and TA1538), Assay Type: Histidine reverse gene mutation, Ames assay, Assay Code: SALT, Evaluation Type: Evaluation A (Pre-1980)
[4] = Species/Cell Type: Human, Assay Type: Sister-chromatid exchange (SCE) in vitro, Assay Code: SC1T, Evaluation Type: Evaluation B (Post-1980)
[5] = Species/Cell Type: Mammalian polychromatic erythrocytes, Assay Type: Micronucleus test, chromosome aberrations, Assay Code: MNTT, Evaluation Type: Evaluation B (Post-1980)
[6] = Species/Cell Type: Escherichia coli polA (W3119 vs P3478), Assay Type: Rec-assay, DNA effects (bacterial DNA repair), Assay Code: RE1+, Evaluation Type: Evaluation A (Pre-1980)
[7] = Species/Cell Type: Salmonella typhimurium (one or more of the five standard strains: TA98, TA100, TA1535, TA1537, and TA1538), Assay Type: Histidine reverse gene mutation, Ames assay, Assay Code: SAL+, Evaluation Type: Evaluation A (Pre-1980)
[8] = Species/Cell Type: Human diploid fibroblasts, Assay Type: Unscheduled DNA synthesis (UDS) in vitro, DNA effects, Assay Code: UDH+, Evaluation Type: Evaluation A (Pre-1980)
[9] = Species/Cell Type: Nonhuman, Assay Type: Sister-chromatid exchange (SCE) in vitro, Assay Code: SC2+, Evaluation Type: Evaluation B (Post-1980)
[10] = Species/Cell Type: Drosophila melanogaster, Assay Type: Sex-linked recessive lethal gene mutation, Assay Code: SRL+, Evaluation Type: Evaluation A (Pre-1980)

`Cc1ccc(C2CO2)cc1C` (centres undefined) was tested, and the mutagenic call (Species/Cell Type: Escherichia coli WP2, Assay Type: Tryptophan reverse gene mutation, Assay Code: WP2+D, Dose Response: With dose response, Evaluation Type: Evaluation A (Pre-1980)) was “active; positive” and the mutagenic call (Species/Cell Type: Escherichia coli WP2 UVRA, Assay Type: Tryptophan reverse gene mutation, Assay Code: WPU+D, Dose Response: With dose response, Evaluation Type: Evaluation A (Pre-1980)) was “active; positive”.
`Cc1ccc2ccc3c(C)c4ccccc4c4ccc1c2c34` was tested, and the mutagenic call [1] was “no conclusion”.
For `O=C(NCCCCCCCCNC(=O)C(Cl)Cl)C(Cl)Cl`, the mutagenic call [2] was “active; positive”.
For `Cc1cc2ccccc2c2cc(F)c3ccccc3c12`, the mutagenic call [3] was “no conclusion”.
`O[C@H]1[C@H]2c3cc4c(cc3CN3CCC(=C[C@@H]1O)[C@H]23)OCO4` was tested, and the mutagenic call (Species/Cell Type: Mammalian polychromatic erythrocytes, Assay Type: Micronucleus test, chromosome aberrations, Assay Code: MNT+, Evaluation Type: Evaluation B (Post-1980)) was “active; positive”.
In the case of `O[C@H]1[C@@H](O)Cc2c(cc3ccc4cccc5ccc2c3c45)[C@@H]1O`, the mutagenic call (Species/Cell Type: Chinese hamster lung (V79) cells, Assay Type: Forward gene mutation at the HPRT or ouabain locus, Assay Code: V79-, Evaluation Type: Evaluation A (Pre-1980)) is reported as “inactive; negative”.
With `Cc1cccc(O)c1C` the mutagenic call (Species/Cell Type: Human lymphocytes, Assay Type: Sister-chromatid exchange (SCE) in vitro, Assay Code: SCLT, Evaluation Type: Evaluation B (Post-1980)) was “no conclusion” and the mutagenic call [4] was “no conclusion”.
For `O=S(O)S(=O)(=O)O`, the mutagenic call [5] was “no conclusion”, the mutagenic call (Species/Cell Type: Nonhuman, Assay Type: Sister-chromatid exchange (SCE) in vitro, Assay Code: SC2T, Evaluation Type: Evaluation A (Pre-1980)) was “no conclusion” and the mutagenic call (Species/Cell Type: Nonhuman, Assay Type: Sister-chromatid exchange (SCE) in vivo, Assay Code: SC3-, Evaluation Type: Evaluation B (Post-1980)) was “inactive; negative”.
`OCl` was tested, and the mutagenic call [6] was “active; positive”, the mutagenic call (Species/Cell Type: Human lymphocytes or leukocytes, Assay Type: Chromosome aberrations in vitro, Assay Code: CY7+D, Dose Response: With dose response, Evaluation Type: Evaluation A (Pre-1980)) was “active; positive” and the mutagenic call (Species/Cell Type: Human, Assay Type: Sister-chromatid exchange (SCE) in vitro, Assay Code: SC1+, Evaluation Type: Evaluation B (Post-1980)) was “active; positive”. For the same molecule, the mutagenic call [5] was “no conclusion”, the mutagenic call (Species/Cell Type: Nonhuman, Assay Type: Chromosome aberrations in vitro, Assay Code: CY&+D, Dose Response: With dose response, Evaluation Type: Evaluation A (Pre-1980)) was “active; positive” and the mutagenic call [3] was “no conclusion”.
With `O=C1N(CCO)CCN1/N=C/c1ccc([N+](=O)[O-])o1` the mutagenic call [7] was “active; positive”.
With `Cc1ccc(N=Nc2c(O)c(C(=O)O)cc3ccccc23)c(S(=O)(=O)O)c1` the mutagenic call [3] was “no conclusion”.
`Nc1ccc(O)c(N)c1` was tested, and the mutagenic call (Species/Cell Type: Allium cepa, Assay Type: Chromosome aberrations, Assay Code: ALC-, Evaluation Type: Evaluation A (Pre-1980)) was “inactive; negative”.
With `CC(=O)O/C=C/Cc1ccc2c(c1)OCO2` the mutagenic call [8] was “active; positive”.
In the case of `O=Cc1ccccc1`, the mutagenic call (Species/Cell Type: Neurospora crassa, Assay Type: Reverse gene mutation, Assay Code: NER+, Evaluation Type: Evaluation A (Pre-1980)) is reported as “active; positive”.
For `CC(=O)N(O)c1ccc(-c2ccccc2)cc1`, the mutagenic call [8] was “active; positive” and the mutagenic call [9] was “active; positive”.
`Nc1ccc(S(N)(=O)=O)cc1` was tested, and the mutagenic call (Species/Cell Type: Aspergillus nidulans, Assay Type: Aneuploidy, chromosome aberrations, Assay Code: ASN-, Evaluation Type: Evaluation A (Pre-1980)) was “inactive; negative”, the mutagenic call (Species/Cell Type: Aspergillus nidulans, Assay Type: Mitotic recombination, Assay Code: ASG+, Evaluation Type: Evaluation A (Pre-1980)) was “active; positive” and the mutagenic call (Species/Cell Type: Neurospora crassa, Assay Type: Aneuploidy, chromosome aberrations, Assay Code: NEN-, Evaluation Type: Evaluation A (Pre-1980)) was “inactive; negative”. For the same molecule, the call (Species/Cell Type: Nonhuman, Assay Code: CCGT, Evaluation Type: Evaluation A (Pre-1980)) was “no conclusion”.
With `[Cl][Pb][Cl]` the mutagenic call (Species/Cell Type: Bacillus subtilis (H17 vs M45), Assay Type: Rec-assay, spot test, DNA effects (bacterial DNA repair), Assay Code: REW-, Evaluation Type: Evaluation A (Pre-1980)) was “inactive; negative”.
For `COc1ccc(C(=O)N2c3ccccc3Cc3ccccc32)cc1`, the mutagenic call [2] was “active; positive”.
With `OCC1=CCN2CC[C@H](O)[C@@H]12` the mutagenic call [1] was “no conclusion”.
With `O=NN1CC=CCC1` the mutagenic call (Species/Cell Type: Drosophila melanogaster, Assay Type: Aneuploidy, partial sex chromosome loss, chromosome aberrations, Assay Code: DAPT, Evaluation Type: Evaluation A (Pre-1980)) was “no conclusion”, the mutagenic call (Species/Cell Type: Drosophila melanogaster, Assay Type: Aneuploidy, whole sex chromosome loss, chromosome aberrations, Assay Code: DACT, Evaluation Type: Evaluation A (Pre-1980)) was “no conclusion” and the mutagenic call [10] was “active; positive”. The mutagenic call [7] was “active; positive”.
For `COC(=O)/C=C(\C)OP(=O)(OC)OC`, the mutagenic call (Species/Cell Type: Human, Assay Type: Sister-chromatid exchange (SCE) in vitro, Assay Code: SC1+D, Dose Response: With dose response, Evaluation Type: Evaluation B (Post-1980)) was “active; positive”, the mutagenic call (Species/Cell Type: Tradescantia species, Assay Type: Chromosome aberrations, Assay Code: TRC+, Evaluation Type: Evaluation A (Pre-1980)) was “active; positive” and the mutagenic call (Species/Cell Type: Vicia faba, Assay Type: Chromosome aberrations, Assay Code: VIC+, Evaluation Type: Evaluation A (Pre-1980)) was “active; positive”.
For `CN(N=O)C(=O)N[C@@H](C=O)[C@@H](O)[C@H](O)[C@H](O)CO`, the mutagenic call (Species/Cell Type: Arabidopsis species, Assay Type: Gene mutation, Assay Code: ARM+D, Dose Response: With dose response, Evaluation Type: Evaluation A (Pre-1980)) was “active; positive”, the mutagenic call (Species/Cell Type: Chinese hamster lung (V79) cells, Assay Type: Forward gene mutation at the HPRT or ouabain locus, Assay Code: V79+, Evaluation Type: Evaluation A (Pre-1980)) was “active; positive” and the mutagenic call [6] was “active; positive”. For the same molecule, the call (Species/Cell Type: Nonhuman, Assay Code: CCG+, Evaluation Type: Evaluation A (Pre-1980)) was “active; positive”, the mutagenic call (Species/Cell Type: Nonhuman, Assay Type: Sister-chromatid exchange (SCE) in vivo, Assay Code: SC3+, Evaluation Type: Evaluation B (Post-1980)) was “active; positive” and the mutagenic call [7] was “active; positive”. For the same molecule, the mutagenic call (Species/Cell Type: Salmonella typhimurium, Assay Type: Forward and reverse gene mutation, body fluid assay, Assay Code: BFU+, Evaluation Type: Evaluation A (Pre-1980)) was “active; positive” and the mutagenic call (Species/Cell Type: Salmonella typhimurium, Assay Type: Forward and reverse gene mutation, host-mediated assay, Assay Code: HMA+, Evaluation Type: Evaluation A (Pre-1980)) was “active; positive”.
With `[O][Cl+][O-]` the mutagenic call [5] was “no conclusion”.
`CCN(CCCl)CCCNc1c2ccc(Cl)cc2nc2ccc(OC)nc12` was tested, and the mutagenic call (Species/Cell Type: Chinese hamster ovary (CHO) cells, Assay Type: Forward gene mutation at the HPRT locus, Assay Code: CHO+, Evaluation Type: Evaluation B (Post-1980)) was “active; positive”.
For `CN(C)CCNc1ccc(NCCN(C)C)c2c1C(=O)c1c(O)ccc(O)c1C2=O`, the mutagenic call [9] was “active; positive”.
`Oc1ccc(N=Nc2ccccc2)cc1` was tested, and the mutagenic call (Species/Cell Type: Salmonella typhimurium (one or more of the five standard strains: TA98, TA100, TA1535, TA1537, and TA1538), Assay Type: Histidine reverse gene mutation, Ames assay, Assay Code: SAL-, Evaluation Type: Evaluation A (Pre-1980)) was “inactive; negative”.
`Cc1cccc(-c2ccc(N)cc2C)c1` was tested, and the mutagenic call (Species/Cell Type: Syrian hamster embryo (SHE) cells, Assay Type: Cell transformation, clonal assay, Assay Code: CTC+, Evaluation Type: Evaluation A (Pre-1980)) was “active; positive”.
With `CC(C)C(Br)Br` the mutagenic call [6] was “active; positive”.
In the case of `O=C(CCCN1CCC(O)(c2ccc(Cl)cc2)CC1)c1ccc(F)cc1`, the mutagenic call (Species/Cell Type: Allium cepa, Assay Type: Chromosome aberrations, Assay Code: ALC+D, Dose Response: With dose response, Evaluation Type: Evaluation A (Pre-1980)) is reported as “active; positive” and the mutagenic call [4] is reported as “no conclusion”.
With `CCC(=O)Oc1ccc2c(c1)CC[C@@H]1[C@@H]2CC[C@]2(C)[C@@H](OC(=O)CC)CC[C@@H]12` the mutagenic call (Species/Cell Type: Rat, Sex: Male, Assay Type: Sperm morphology, Assay Code: SPA+, Evaluation Type: Evaluation A (Pre-1980)) was “active; positive”.
With `O.O.O.O.O.[Cd+2].[Cd+2].[Cl-].[Cl-].[Cl-].[Cl-]` the mutagenic call [9] was “active; positive”.
With `CCOS(=O)(=O)OCCOS(=O)(=O)OCC` the mutagenic call (Species/Cell Type: Schizosaccharomyces pombe, Assay Type: Reverse gene mutation, Assay Code: YEZ+, Evaluation Type: Evaluation A (Pre-1980)) was “active; positive”.
`CC(C)OC(=O)Nc1ccccc1` was tested, and the mutagenic call (Species/Cell Type: Vicia faba, Assay Type: Chromosome aberrations, Assay Code: VIC+D, Dose Response: With dose response, Evaluation Type: Evaluation A (Pre-1980)) was “active; positive”.
With `COc1cc(NC(=O)c2ccccc2)c(OC)cc1[N+]#N` the mutagenic call (Species/Cell Type: Bacillus subtilis (H17 vs M45), Assay Type: Rec-assay, spot test, DNA effects (bacterial DNA repair), Assay Code: REWT, Evaluation Type: Evaluation A (Pre-1980)) was “no conclusion”.
In the case of `Cc1ccc2ccc3c4ccccc4cc4ccc1c2c43`, the mutagenic call [10] is reported as “active; positive”.
`O=C(O)CCC(=O)OC[C@@H](NC(=O)C(Cl)Cl)[C@H](O)c1ccc([N+](=O)[O-])cc1` was tested, and the mutagenic call (Species/Cell Type: Mammalian polychromatic erythrocytes, Assay Type: Micronucleus test, chromosome aberrations, Assay Code: MNTT, Evaluation Type: Evaluation A (Pre-1980)) was “no conclusion” and the mutagenic call (Species/Cell Type: Mouse, Sex: Male, Assay Type: Sperm morphology, Assay Code: SPI-, Evaluation Type: Evaluation A (Pre-1980)) was “inactive; negative”.
In the case of `O=C(O)c1ccccc1N=Nc1c(O)c(S(=O)(=O)O)cc2cc(S(=O)(=O)O)ccc12`, the mutagenic call [3] is reported as “no conclusion”.
